Assay results reported in ChEMBL document CHEMBL1156829 (Proc Natl Acad Sci U S A, 2008).

Columns and labels:
Plasmodium falciparum [1] = assay: NOVARTIS: Inhibition of Plasmodium falciparum 3D7 (drug-susceptible) proliferation in erythrocyte-based infection assay; assay type: functional, organism-based; details: Plasmodium falciparum, 3D7
Plasmodium falciparum [2] = assay: NOVARTIS: Inhibition of Plasmodium falciparum W2 (drug-resistant) proliferation in erythrocyte-based infection assay; assay type: functional, organism-based; details: Plasmodium falciparum, W2; read-out: EC50
[3] = NOVARTIS: Cytotoxicity against human hepatocellular carcinoma cell line (Huh7); assay type: toxicity, cell-based, Huh-7; details: Huh7 cells (hepatocellular carcinoma cell line)

Structure (SMILES)	EC50 (Plasmodium falciparum [1]) [nM]	EC50 (Plasmodium falciparum [2]) [nM]	CC50 [3] [nM]
CS(=O)(=O)N(CCc1ccccc1)CC(O)CN1CCC(CNC(=O)NC(c2ccccc2)c2ccccc2)CC1 (centres undefined)	> 1530	1020	> 10000
COC(=O)C1C(=O)C2=C(CC1C)NC(=O)CC2c1ccc(Cl)cc1Cl (centres undefined)	991	128	> 100000
Brc1ccc(-c2n(Cc3ccccc3)c3ccccc3[n+]2Cc2ccccc2)o1	167	260	11000
O=C(NCCc1ccccc1)c1cnc(NCCCn2ccnc2)nc1NC1CCCC1	678	1720	> 8690
Cc1cccnc1NC(=O)CCCC(=O)O	> 1070	788	> 10000
C[n+]1ccccc1/C=C/C1=C(c2ccccc2)Oc2ccccc2O1	133	249	14900
O=C(O)c1cccc(NC(=O)c2ccc(N3C(=O)c4ccc(C(=O)Nc5cccc(C(=O)O)c5)cc4C3=O)cc2)c1	> 12500	1140	> 100000
C=CCn1c(SCC(=O)Nc2ccccc2C)nc2sc(C)cc2c1=O	4280	1800	> 100000
COC(C(=NO)c1ccc(Cl)cc1)c1ccccc1 (centres undefined)	> 912	> 1610	> 10000
CC(=Cc1sc2ccc3occc3c2[n+]1CCO)C=C1Sc2ccc3ccoc3c2N1CCO.CCC(=Cc1sc2ccc3ccccc3c2[n+]1C)C=C1Sc2ccc3ccccc3c2N1C	> 373	144	> 10000
c1ccc2c(NCCc3c[nH]c4ccccc34)c3ccccc3nc2c1	86	31.6	7080
N=C(N)c1ccc(OCCCOc2ccc(C(=N)N)cc2)cc1	75.5	59.5	> 6250
CC(CNC(=O)c1cn(C2CCCCC2)cc(C(=O)NC(C)(C)C)c1=O)c1ccccc1 (centres undefined)	174	< 15	> 10000
c1ccc(-c2cccc(-c3ccccn3)n2)nc1 [TERPYRIDINE]	154	39.2	12600
Cc1cc(C)c2c(c1)-c1c(ssc1=S)C(C)(C)N2C(=O)c1ccccc1	523	370	> 100000
COc1cccc(C(=O)N(C)CCCNc2ccnc3cc(Cl)ccc23)c1	390	208	5930
COc1cccc(-c2cn3c(n2)sc2cc(C(=O)NC4CCN(Cc5ccccc5)CC4)ccc23)c1	513	1980	> 100000
CCc1c(C)nc(SCC(=O)NNC(C)=O)nc1O	> 1250	> 1030	> 10000
CCc1ccc2c(c1)c1nnc(SCC(=O)NCCOC)nc1n2C	> 1250	> 838	> 10000
O=C(Nc1ccc(C(F)(F)F)cc1)c1ccc(NCCCN2CCCCCC2)c([N+](=O)[O-])c1	120	328	21200
CCN1CC=C2C(C#N)=C(N)C(C#N)(C#N)C(c3ccc(C)s3)C2C1 (centres undefined)	> 877	> 1250	> 10000
COc1ccc(C2CC(=O)C3=C(C2)NC(C)=C(C(=O)OC(C)C)C3c2ccc(Cl)cc2Cl)cc1OC (centres undefined)	6.3	3.91	> 100000
CCN(CC)c1ccc2c(c1)OC(N)=C(C#N)C2c1ccsc1 (centres undefined)	> 9540	> 12500	> 100000

Structure (SMILES)	EC50 (Plasmodium falciparum [1]) [nM]	EC50 (Plasmodium falciparum [2]) [nM]	CC50 [3] [nM]
Cc1ccc([N+](=O)[O-])cc1-c1ccc(/C=C2/SC(=S)N(CC(=O)O)C2=O)o1	> 1250	> 940	> 10000
O=C(NCCCCNc1ccnc2cc(Cl)ccc12)c1cccc(C(F)(F)F)c1	171	< 13.8	> 10000
Cc1cc(C)n(-c2ccc(NC(=O)C3CCN(Cc4ccc5nonc5c4)CC3)cc2)n1	430	412	> 83200
O=C(Nc1ccc(Br)cc1C(=O)c1ccccc1)c1cc2nc(-c3cccs3)cc(C(F)(F)F)n2n1	> 12500	1760	> 100000
CCCN1CCC(NC2CCCc3c2[nH]c2ccc([N+](=O)[O-])cc32)CC1 (centres undefined)	1160	3630	28000
C=CCc1cc(-c2cc(CC=C)c(O)c(CN(CC)CC)c2)cc(CN(CC)CC)c1O	273	61.9	> 10000
COc1ccc(CN2CSC3=C(C#N)C(c4cccc(OC)c4)CC(=O)N3C2)cc1 (centres undefined)	3700	3550	> 100000
O=C(Nc1cc(Cl)ccc1O)c1cnn2c(C(F)(F)F)cc(-c3ccc(F)cc3)nc12	> 8740	2910	> 100000
CC(C)C(=O)N1CCOc2c(cc(-c3csc4ccccc34)cc2OCCc2ccccn2)C1	183	125	50600
COc1ccc2c(c1)c(C)cc[n+]2Cc1ccccc1	86.2	118	20700
Oc1ccc(-c2ccccc2)cc1CN1CCCCC1	1080	132	> 10000
CCN(CC)CCNc1ncnc2c1[nH]c1ccc(F)cc12	277	169	31500
Clc1cccc(CSc2nc(Nc3ccc4c(c3)OCO4)c3ccccc3n2)c1	1170	2790	> 82900
O=S(=O)(NC1CCCC1)c1cccc2nonc12	> 1600	> 982	> 10000
O=C(Cn1c(=O)oc2cc(S(=O)(=O)NCc3ccccc3)ccc21)NC1CCCCC1	> 1250	> 955	> 10000
CCCn1c(SCC(=O)Nc2ccccc2Cl)nc2c1c(=O)n(C)c(=O)n2C	> 1250	1320	> 10000
Oc1cccc(-c2nc(-c3ccccc3)c(-c3ccc4oc5ccc(-c6[nH]c(-c7cccc(O)c7)nc6-c6ccccc6)cc5c4c3)[nH]2)c1	2350	1010	20400
COC(=O)c1c(N)n(-c2ccccc2OC)c2nc3ccccc3nc12	> 12500	2700	> 100000
Cc1ccc[n+](C(C)C(=O)c2ccc(-c3ccccc3)cc2)c1 (centres undefined)	1610	649	> 100000
O=C1NC(=O)C(Cc2ccc(S(=O)(=O)N3CCN(c4ccccc4)CC3)cc2)S1 (centres undefined)	790	5430	> 100000
Cc1cccc(NC(=O)N2CCN(C(=O)c3nc(-c4ccccc4)nc(C)c3C(=O)OC(C)C)CC2C)c1C (centres undefined)	509	384	> 5760
CC(C)CC(NC(=O)/C(=C\c1ccco1)NC(=O)c1ccccc1)C(=O)OCc1ccccc1 (centres undefined)	> 1250	> 625	> 10000
CCOc1ccc2nc(C)cc(Nc3ccc(Br)cc3)c2c1	114	182	7290

Structure (SMILES)	EC50 (Plasmodium falciparum [1]) [nM]	EC50 (Plasmodium falciparum [2]) [nM]	CC50 [3] [nM]
CCN(CC)[P+](N(C)C[Si](C)(C)C)(N(CC)CC)N(CC)CC	154	523	8410
CN(CCCNc1ccnc2cc(Cl)ccc12)S(=O)(=O)c1ccc([N+](=O)[O-])cc1	240	217	> 11100
COc1cccc2cc(-c3nc(-c4ccccc4)cs3)c(=O)oc12	> 611	> 1250	> 10000
COc1ccc(NC(=O)CCn2c(=S)oc3ccccc32)c([N+](=O)[O-])c1	> 1250	> 346	> 10000
N#Cc1cc(-c2cccc(C(F)(F)F)c2)cn(Cc2c(Cl)cccc2Cl)c1=O	> 7430	5080	> 100000
O=C(c1ccc([N+](=O)[O-])cc1)c1ccc(Cl)c(Cl)c1	251	555	> 100000
CCc1ccc(C(=O)C[n+]2cc(-c3ccc(C)cc3)n3c2CCC3)cc1	764	333	32700
COc1ccc(C2CC(=O)C3=C(C2)NC(C)=C(C(=O)OC(C)C)C3c2cccc(Cl)c2)cc1OC (centres undefined)	71.3	31.8	16000
COc1ccc2nc(NC(=O)c3ccc(C#N)cc3)sc2c1	> 1060	> 1250	> 10000
CN(CCCNc1ccnc2cc(Cl)ccc12)C(=O)C12CC3CC(CC(C3)C1)C2	53	184	14100
CCCCN(CC)C(=O)CSc1nc2ccccc2c(=O)n1Cc1ccco1	> 594	> 1250	> 10000
O=[N+]([O-])c1cccc2c(S(=O)(=O)NCCCN(CCO)CCO)cccc12	> 1180	> 1550	> 10000
O=C(Nc1ccccc1O)c1ccc(C(=O)N(C2CCCCC2)C2CCCCC2)cc1	1470	> 2450	> 100000
CC1C(Br)C(=O)C(Br)C(C)C12CCCC2 (centres undefined)	> 1250	> 871	> 10000
Cc1ccc(N(C)C(=O)CCNS(=O)(=O)c2cc(Br)cnc2N)cc1	1920	224	> 100000
Clc1ccc(NCn2nnc3ccccc32)nc1	> 8200	1690	> 100000
COc1ccc2nc(C)cc(N(c3ccc(Br)cc3)S(=O)(=O)c3ccc([N+](=O)[O-])cc3)c2c1	647	1050	6830
CN(C)c1ccc(C=NNc2ncnc3nc[nH]c23)cc1	167	138	11000
CCC(c1nc2ccccc2c(=O)n1-c1ccccc1OC)N(CCc1ccccc1)C(=O)c1cccc(C(F)(F)F)c1 (centres undefined)	919	118	> 10000
CN1CCN(Cc2c(O)ccc3c(=O)c(Oc4ccc(C(C)(C)C)cc4)c(C(F)(F)F)oc23)CC1	1800	547	> 100000
OC(CNCc1ccco1)Cn1c2ccc(Cl)cc2c2cc(Cl)ccc21 (centres undefined)	5050	881	> 100000
COc1ccc(-c2cc(=O)c3c(O)cc(OC4OC(COC5OC(C)C(O)C(O)C5O)C(O)C(O)C4O)cc3o2)cc1 (centres undefined)	> 12500	4420	> 100000
